# Data reported in patent publication US10550105B2 (Ribon Therapeutics Inc., priority 2018, dated 2020).
# Biological target: PARP7 (Homo sapiens (Human), UniProt Q7Z3E1)
# Assay: Enzymatic assay for inhibition of PARP7: TR-FRET displacement of biotinylated Probe A from the TIPARP active site
# Assay type: binding
# Details: Table A-1
# How it was run: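 Percent inhibition derives from the ratio of 665 to 615 nm emission, which reports how much Probe A remains bound to TIPARP. Plates sat 30 min at 25° C before the time-resolved read (320 nm excitation).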
# Chain of PARP7 (Q7Z3E1 whole entry): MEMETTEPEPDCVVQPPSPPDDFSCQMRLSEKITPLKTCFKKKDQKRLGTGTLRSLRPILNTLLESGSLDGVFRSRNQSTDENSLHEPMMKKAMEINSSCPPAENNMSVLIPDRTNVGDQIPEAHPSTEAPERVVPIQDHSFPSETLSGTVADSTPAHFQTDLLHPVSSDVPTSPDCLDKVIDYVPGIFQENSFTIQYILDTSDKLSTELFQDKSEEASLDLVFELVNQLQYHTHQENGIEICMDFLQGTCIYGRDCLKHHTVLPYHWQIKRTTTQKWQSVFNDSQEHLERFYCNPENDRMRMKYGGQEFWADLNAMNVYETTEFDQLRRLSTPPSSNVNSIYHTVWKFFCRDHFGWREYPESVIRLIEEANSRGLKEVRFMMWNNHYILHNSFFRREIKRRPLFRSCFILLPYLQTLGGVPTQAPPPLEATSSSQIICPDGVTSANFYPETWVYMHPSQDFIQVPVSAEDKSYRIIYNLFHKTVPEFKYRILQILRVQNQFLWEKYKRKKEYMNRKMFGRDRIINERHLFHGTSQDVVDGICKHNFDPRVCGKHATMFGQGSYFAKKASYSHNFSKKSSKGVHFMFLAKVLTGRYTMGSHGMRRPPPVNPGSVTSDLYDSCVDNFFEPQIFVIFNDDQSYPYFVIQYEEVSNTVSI
row,Compound,IC50
1,"N#Cc1ccc(N2CCCN(C(=O)CCOC[C@@H]3CCCN3c3cn[nH]c(=O)c3C(F)(F)F)CC2)nc1 [Example 106, (S)-6-(4-(3-((1-(6-oxo-5-(trifluoromethyl)-1,6-dihydropyridazin-4-yl)pyrrolidin-2-yl)methoxy)propanoyl)-1,4-diazepan-1-yl)nicotinonitrile]",< 100 nM
2,"N#Cc1ccc(NC2CN(C(=O)CCOC[C@@H]3CCCN3c3cn[nH]c(=O)c3C(F)(F)F)C2)nc1 [Example 107, 6-[[1-(3-[[(2S)-1-[6-oxo-5-(trifluoromethyl)-1,6-dihydropyridazin-4-yl]pyrrolidin-2-yl]methoxy]propanoyl)azetidin-3-yl]amino]pyridine-3-carbonitrile]",< 100 nM
3,"N#Cc1ccc(N2C[C@@H]3C[C@H]2CN3C(=O)CCOC[C@@H]2CCCN2c2cn[nH]c(=O)c2C(F)(F)F)nc1 [Example 112A, 6-[(1S,4S)-5-(3-(((S)-1-(6-oxo-5-(trifluoromethyl)-1,6-dihydropyridazin-4-yl)pyrrolidin-2-yl)methoxy)propanoyl)-2,5-diaza-bicyclo[2.2.1]heptan-2-yl)nicotinonitrile]",100 to 1000 nM
4,"N#Cc1ccc(N2C[C@H]3C[C@@H]2CN3C(=O)CCOC[C@@H]2CCCN2c2cn[nH]c(=O)c2C(F)(F)F)nc1 [Example 112B, 6-[(1R,4R)-5-(3-(((S)-1-(6-oxo-5-(trifluoromethyl)-1,6-dihydropyridazin-4-yl)pyrrolidin-2-yl)methoxy)propanoyl)-2,5-diaza-bicyclo[2.2.1]heptan-2-yl)nicotinonitrile]",≥ 1000 nM
5,"N#Cc1ccc(N2CCCC(NC(=O)CCOC[C@@H]3CCCN3c3cn[nH]c(=O)c3C(F)(F)F)C2)nc1 (stereo partly drawn) [Example 114, N-[1-(5-cyanopyridin-2-yl)piperidin-3-yl]-3-[[(2S)-1-[6-oxo-5-(trifluoromethyl)-1,6-dihydropyridazin-4-yl]pyrrolidin-2-yl]methoxy]propanamide]",≥ 1000 nM
6,"N#Cc1ccc(N2CCC(NC(=O)CCOC[C@@H]3CCCN3c3cn[nH]c(=O)c3C(F)(F)F)CC2)nc1 [Example 115, N-[1-(5-cyanopyridin-2-yl)piperidin-4-yl]-3-[[(2S)-1-[6-oxo-5-(trifluoromethyl)-1,6-dihydropyridazin-4-yl]pyrrolidin-2-yl]methoxy]propanamide]",< 100 nM

# More lines, now with the values ahead:
row,IC50,Compound
1,100 to 1000 nM,"N#Cc1ccc(N2CCC3(CC2)CN(C(=O)CCOC[C@@H]2CCCN2c2cn[nH]c(=O)c2C(F)(F)F)C3)nc1 [Example 105, 6-[2-(3-[[(2S)-1-[6-oxo-5-(trifluoromethyl)-1,6-dihydropyridazin-4-yl]pyrrolidin-2-yl]methoxy]propanoyl)-2,7-diazaspiro[3.5]nonan-7-yl]pyridine-3-carbonitrile]"
2,100 to 1000 nM,"N#Cc1ccc(N2CC3(CN(C(=O)CCOC[C@@H]4CCCN4c4cn[nH]c(=O)c4C(F)(F)F)C3)C2)nc1 [Example 108, 6-[6-(3-[[(2S)-1-[6-oxo-5-(trifluoromethyl)-1,6-dihydropyridazin-4-yl]pyrrolidin-2-yl]methoxy]propanoyl)-2,6-diazaspiro [3.3]heptan-2-yl]pyridine-3-carbonitrile]"
3,100 to 1000 nM,"N#Cc1ccc(N2CCC3(CN(C(=O)CCOC[C@@H]4CCCN4c4cn[nH]c(=O)c4C(F)(F)F)C3)C2)nc1 [Example 109, 6-[2-(3-[[(2S)-1-[6-oxo-5-(trifluoromethyl)-1,6-dihydropyridazin-4-yl]pyrrolidin-2-yl]methoxy]propanoyl)-2,6-diazaspiro[3.4]octan-6-yl]pyridine-3-carbonitrile]"
4,100 to 1000 nM,"N#Cc1ccc(N2CCC3(CCN(C(=O)CCOC[C@@H]4CCCN4c4cn[nH]c(=O)c4C(F)(F)F)C3)C2)nc1 (stereo partly drawn) [Example 111, 6-[7-(3-[[(2S)-1-[6-oxo-5-(trifluoromethyl)-1,6-dihydropyridazin-4-yl]pyrrolidin-2-yl]methoxy]propanoyl)-2,7-diazaspiro[4.4]nonan-2-yl]pyridine-3-carbonitrile]"
